Assays:
IL-6 [1] = assay: IL-6 gene expression (mRNA, real-time PCR) in keratinocytes stressed with LPS; assay type: cell-based, human; conditions: keratinocytes stressed with 10 μg/ml LPS 24 h: LPS alone, or pretreated with 0.1% AV119 24 h, or with 30 μM calpain
Protocol: (§1) We evaluated the capacity to modulate the inflammatory response of the avocado sugars obtained according to Example 1, hereafter called AV119, in human primary keratinocytes stressed with LPS (lipopolysaccharide).
(§2) The cells were pretreated with 0.1% AV119 for 24 h and successively with 10 μg/ml of LPS for 24 h. In another series of experiments, the keratinocytes were pretreated with 30 μM calpain and successively with 10 μg/ml LPS for 24 h. Calpain is a specific inhibitor of the transcription factor NFκB, a key element of the inflammatory cascade. A control of keratinocytes treated only with AV119 was prepared.
(§3) Expression of mRNA for the cytokines IL-6, IL-8, IL-1α and TNF-α was analyzed by real-time PCR and protein production and release were analyzed by ELISA in the culture supernatants. Moreover, ICAM-1 expression and production were also analyzed. Finally, IκB phosphorylation was analyzed to measure the activation of transcription factor NFκB.
(§4) Total RNA was extracted with the High Pure RNA Isolation Kit (Roche Diagnostics) according to the manufacturer's recommendations. […] The melting curve was analyzed at the end of each amplification to ensure the absence of non-specific reaction products. […]

IL-8 [2] = assay: IL-8 gene expression (mRNA, real-time PCR) in keratinocytes stressed with LPS; assay type: cell-based, human; conditions: keratinocytes stressed with 10 μg/ml LPS 24 h: LPS alone, or pretreated with 0.1% AV119 24 h, or with 30 μM calpain
Protocol: as §1, §2, §3, §4

IL-1α [3] = assay: IL-1α gene expression (mRNA, real-time PCR) in keratinocytes stressed with LPS; assay type: cell-based, human; conditions: keratinocytes stressed with 10 μg/ml LPS 24 h: LPS alone, or pretreated with 0.1% AV119 24 h, or with 30 μM calpain
Protocol: as §1, §2, §3, §4

TNF-α [4] = assay: TNF-α gene expression (mRNA, real-time PCR) in keratinocytes stressed with LPS; assay type: cell-based, human; conditions: keratinocytes stressed with 10 μg/ml LPS 24 h: LPS alone, or pretreated with 0.1% AV119 24 h, or with 30 μM calpain
Protocol: as §1, §2, §3, §4

IL-6 [5] = assay: IL-6 protein production (ELISA) in keratinocytes stressed with LPS; assay type: cell-based, human; conditions: keratinocytes stressed with 10 μg/ml LPS 24 h: LPS alone, or pretreated with 0.1% AV119 24 h, or with 30 μM calpain; culture supernatant
Protocol: as §1, §2, §3
(§5) A standard protocol was used for the ELISA tests (Phoenix Pharmaceuticals, Inc.).

IL-8 [6] = assay: IL-8 protein production (ELISA) in keratinocytes stressed with LPS; assay type: cell-based, human; conditions: keratinocytes stressed with 10 μg/ml LPS 24 h: LPS alone, or pretreated with 0.1% AV119 24 h, or with 30 μM calpain; culture supernatant
Protocol: as §1, §2, §3, §5

IL-1α [7] = assay: IL-1α protein production (ELISA) in keratinocytes stressed with LPS; assay type: cell-based, human; conditions: keratinocytes stressed with 10 μg/ml LPS 24 h: LPS alone, or pretreated with 0.1% AV119 24 h, or with 30 μM calpain; culture supernatant
Protocol: as §1, §2, §3, §5

TNF-α [8] = assay: TNF-α protein production (ELISA) in keratinocytes stressed with LPS; assay type: cell-based, human; conditions: keratinocytes stressed with 10 μg/ml LPS 24 h: LPS alone, or pretreated with 0.1% AV119 24 h, or with 30 μM calpain; culture supernatant
Protocol: as §1, §2, §3, §5

ICAM-1 [9] = assay: ICAM-1 gene expression (mRNA, real-time PCR) in keratinocytes stressed with LPS; assay type: cell-based, human; conditions: keratinocytes stressed with 10 μg/ml LPS 24 h: LPS alone, or with 30 μM calpain
Protocol: as §1
(§6) […] In another series of experiments, the keratinocytes were pretreated with 30 μM calpain and successively with 10 μg/ml LPS for 24 h. Calpain is a specific inhibitor of the transcription factor NFκB, a key element of the inflammatory cascade. A control of keratinocytes treated only with AV119 was prepared.
as §3
Total RNA was extracted with the High Pure RNA Isolation Kit (Roche Diagnostics) according to the manufacturer's recommendations. […] The melting curve was analyzed at the end of each amplification to ensure the absence of non-specific reaction products. Quantification rests on the measure of threshold cycles (CT), which are measured at the beginning of the exponential phase of the reaction and on the normalization of the internal standard curve obtained with the reference gene beta-actin.

ICAM-1 [10] = assay: ICAM-1 protein production (ELISA) in keratinocytes stressed with LPS; assay type: cell-based, human; conditions: keratinocytes stressed with 10 μg/ml LPS 24 h: LPS alone, or with 1% AV119, or with 30 μM calpain
Protocol: as §1, §6, §3, §5

[11] = test system: IκB phosphorylation / transcription factor NFκB; assay: IκB phosphorylation (Western blot) as measure of NFκB activation in keratinocytes stressed with LPS; assay type: cell-based, human; conditions: keratinocytes stressed with 10 μg/ml LPS; pretreated with 0.1% AV119 or 30 μM calpain
Protocol: as §1, §2, §3
Proteins were extracted from the keratinocytes by cold homogenization in lysis buffer (50 mM HEPES pH 7.5, 150 mM NaCl, 1% glycerol, 1% Triton, 1.5 mM MgCl2, 5 mM EGTA) supplemented with 20 mM sodium pyrophosphate, 10 mM sodium orthovanadate and 25 mM NaF and protease inhibitors (aprotinin, phenylmethanesulfonyl fluoride (PMSF)). Protein level was quantified by the Bradford method. […]

IL-1β = IL-1β release (ELISA) by keratinocytes stressed with PMA; assay type: cell-based, human
Protocol: (§7) We evaluated the capacity to modulate the inflammatory response of the avocado sugars obtained according to Example 1, hereafter called AV119, in human primary keratinocytes stressed with PMA (phorbol myristic acetate).
(§8) At day 0 (D0), normal human epidermal keratinocytes (NHEK) are seeded in hydrocortisone-free KGM2 medium.
(§9) At subconfluence (at D1), the NHEK are rinsed with PBS and then pretreated with 0.005% and 0.05% avocado sugars AV119 or 0.1 μM dexamethasone (positive control) (Sigma, product D4902) in hydrocortisone-free KGM2 medium.
(§10) Twenty-four hours later, the NHEK are treated overnight with 10 μg/ml PMA (phorbol myristate acetate).
(§11) After incubation, the culture supernatants are collected and stored at −80° C. awaiting the cytokine (IL-1β, TNF-α, IL-8) ELISA (R&D Systems kits).
(§12) In parallel, the number of living cells is determined by a neutral red test.
(§13) The quantity of cytokine assayed for each condition (concentration in pg/ml, or OD450) is reduced to the number of living cells by dividing by the OD540 value obtained at the end of the neutral red test.
(§14) The results are compared statistically using a one way ANOVA followed by a Tukey's test.

TNF-α [12] = assay: TNF-α release (ELISA) by keratinocytes stressed with PMA; assay type: cell-based, human
Protocol: as §7, §8, §9, §10, §11, §12, §13, §14

IL-8 [13] = assay: IL-8 release (ELISA) by keratinocytes stressed with PMA; assay type: cell-based, human
Protocol: as §7, §8, §9, §10, §11, §12, §13, §14

[14] = test system: tumor cells of Ehrlich's ascites carcinoma; conditions: perseitol associated with a potassium ion; Shibuya et al., Pure Appl. Chem. 1999; cited from earlier work
[15] = NHEK, 10 μg/ml PMA overnight, PMA alone
[16] = PMA 10 μg/ml alone, increase in relation to the untreated control (without PMA)
[17] = 0.1 μM dexamethasone, in relation to PMA
[18] = NHEK pretreated 24 h with 0.1 μM dexamethasone, then 10 μg/ml PMA overnight

With lipopolysaccharide [LPS] the “IL-6 gene expression (mRNA, real-time PCR)” value (IL-6 [1]) was 54.5, the “IL-8 gene expression (mRNA, real-time PCR)” value (IL-8 [2]) was 54.1 and the “IL-1α gene expression (mRNA, real-time PCR)” value (IL-1α [3]) was 71.5. For the same compound, the “TNF-α gene expression (mRNA, real-time PCR)” value (TNF-α [4]) was 68.0, the “IL-6 protein production (ELISA)” value (IL-6 [5]) was 76 and the “IL-8 protein production (ELISA)” value (IL-8 [6]) was 85. The “IL-1α protein production (ELISA)” value (IL-1α [7]) was 82, the “TNF-α protein production (ELISA)” value (TNF-α [8]) was 96.0 and the “ICAM-1 gene expression (mRNA, real-time PCR)” value (ICAM-1 [9]) was 53.2. For the same compound, the “ICAM-1 protein production (ELISA)” value (ICAM-1 [10]) was 85 and the “IκB phosphorylation (activation of transcription factor NFκB), Western blot” value [11] was “strongly induced IκB phosphorylation”.

For `CCCCCCCCCCCCCC(=O)O[C@@H]1[C@@H](C)[C@@]2(O)[C@@H](C=C(CO)C[C@]3(O)C(=O)C(C)=C[C@@H]23)[C@@H]2C(C)(C)[C@]12OC(C)=O` [PMA, phorbol myristate acetate], the “IL-1β pg/ml/OD450 (mean ± SD)” value (IL-1β; [15]) was 10.930 ± 0.190 pg/ml/OD450, the “IL-1β release, % in relation to the control” value (IL-1β; [16]) was 1399% and the “TNF-α pg/ml/OD450 (mean ± SD)” value (TNF-α [12]; [15]) was 0.584 ± 0.079 pg/ml/OD450. The “TNF-α release, % in relation to the control” value (TNF-α [12]; [16]) was 1091%, the “IL-8 pg/ml/OD450 (mean ± SD)” value (IL-8 [13]; [15]) was 1.765 ± 0.305 pg/ml/OD450 and the “IL-8 release, % in relation to the control” value (IL-8 [13]; [16]) was 1017%.

For `C[C@@H]1C[C@H]2[C@@H]3CCC4=CC(=O)C=C[C@]4(C)[C@@]3(F)[C@@H](O)C[C@]2(C)[C@@]1(O)C(=O)CO` [Dexamethasone, dexamethasone], the “IL-1β release, % in relation to the control” value (IL-1β; [17]) was −70%, the “IL-1β pg/ml/OD450 (mean ± SD)” value (IL-1β; [18]) was 3.232 ± 0.329 pg/ml/OD450 and the “TNF-α release, % in relation to the control” value (TNF-α [12]; [17]) was −44%. For the same compound, the “TNF-α pg/ml/OD450 (mean ± SD)” value (TNF-α [12]; [18]) was 0.328 ± 0.007 pg/ml/OD450, the “IL-8 release, % in relation to the control” value (IL-8 [13]; [17]) was −55% and the “IL-8 pg/ml/OD450 (mean ± SD)” value (IL-8 [13]; [18]) was 0.790 ± 0.089 pg/ml/OD450.

For `OCC(O)C(O)C(O)C(O)C(O)CO` (stereo not drawn) [perseitol, Perseitol], the “incorporation of 3H-leucine in tumor cells” value [14] is given as “inhibits the incorporation of 3H-leucine”.

Reference: US9616009B2, “Composition containing at least one C7 sugar for alopecia treatment, cosmetic treatment of hair and nails, and care of hair, eyelashes or nails” (LABORATOIRES EXPANSCIENCE, priority 2009, dated 2017)
